Test results reported in patent publication US20160137639A1, “TRIAZOLE-ISOXAZOLE COMPOUND AND MEDICAL USE THEREOF” (JAPAN TOBACCO INC., priority 2012, published 2016).
Where two headings read alike, the source gives them in different places.

Columns and labels:
[1] = molecular target: T1, mouse RORγ (Mus musculus, UniProt P51450); assay: Luciferase reporter gene assay of inhibitory effect against RORγ transcriptional activity (GAL4-mRORγ plasmid in CHO cells); format: cell-based
T1 construct: mouse, NM_011281.2 and from Ile251 to Lys516; expressed in transfected cells; host or cells: CHO cells (transient co-transfection with pG5-Luc reporter)
T1 sequence (P51450 251-516): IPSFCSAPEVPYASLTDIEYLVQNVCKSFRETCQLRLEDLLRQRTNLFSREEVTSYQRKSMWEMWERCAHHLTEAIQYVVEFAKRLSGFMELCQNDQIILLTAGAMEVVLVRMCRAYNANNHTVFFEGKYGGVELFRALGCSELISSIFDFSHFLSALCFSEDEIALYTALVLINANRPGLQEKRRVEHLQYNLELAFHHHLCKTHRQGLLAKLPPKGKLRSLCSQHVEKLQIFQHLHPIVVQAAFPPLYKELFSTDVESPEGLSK
Summary of the method: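 CHO cells transiently co-transfected with GAL4-mouse RORγ LBD (Ile251–Lys516) and GAL4-dependent luciferase reporter; eight compound concentrations, 0.1% DMSO, 2 days at 37 °C. Luminescence as %-of-vehicle control; EC50 by curve fit, cytotoxic concentrations excluded.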

[2] = molecular target: T2, human RORγ (Homo sapiens, UniProt P51449); assay: Luciferase reporter gene assay of inhibitory effect against RORγ transcriptional activity (GAL4-hRORγ plasmid in CHO cells); format: cell-based
T2 construct: human, NM_005060.3 and from Ser253 to Lys518; expressed in transfected cells; host or cells: CHO cells (transient co-transfection with pG5-Luc reporter)
T2 sequence (P51449 253-518): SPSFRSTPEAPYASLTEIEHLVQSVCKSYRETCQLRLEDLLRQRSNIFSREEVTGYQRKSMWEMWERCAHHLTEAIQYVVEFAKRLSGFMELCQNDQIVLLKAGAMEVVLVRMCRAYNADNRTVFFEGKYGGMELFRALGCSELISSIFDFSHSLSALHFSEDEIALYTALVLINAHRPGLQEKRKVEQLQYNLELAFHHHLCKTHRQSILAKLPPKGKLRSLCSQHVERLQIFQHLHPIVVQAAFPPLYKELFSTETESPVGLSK

SMILES | EC50 ([1]; read-out: LUC EC50 mRORg) | EC50 ([2]; read-out: LUC EC50 hRORg) | EC50 ([1]; read-out: LUC EC50 (μM) mRORg) | EC50 ([2]; read-out: LUC EC50 (μM) hRORg)
Cc1ccc(NC(=O)[C@@H](CCC(=O)O)Cc2noc([C@H]3C[C@@H](CC(C)C)C3)c2C2CC2)c(C)c1 [Example F-671] | < 3 µM | < 3 µM |  | 
CC(C)CCc1nnc(CCC(=O)NC2CCc3ccccc32)n1C1CC1 (racemic) [Example F-83] |  |  | > 3 µM | > 3 µM
CC(C)(C)C[C@H]1C[C@@H](c2onc([C@@H](CCC(=O)O)CC(=O)NS(=O)(=O)c3ccccc3)c2C2CC2)C1 [Example F-723] | > 3 µM | > 3 µM |  | 
Cc1ccc(NC(=O)[C@H]2CNC[C@@H]2c2nnc(CCCC(C)(C)C)n2C2CC2)c(C)c1 (racemic) [Example F-449] |  |  | > 3 µM | > 3 µM
CC(=O)N1C[C@H](C(=O)Nc2ccc(C)cc2C)[C@@H](c2nnc(CCC3CCCCC3)n2C2CC2)C1 [Example F-374] |  |  | < 3 µM | < 3 µM
Cc1ccc(NC(=O)C[C@H](CCC(=O)O)c2noc(-c3nc(C)c(CC(C)C)s3)c2C2CC2)c(Cl)c1 [Example E-27] |  |  | < 3 µM | < 3 µM
Cc1ccc(NC(=O)CCc2nnc(C3(O)CC(CC(C)C)C3)n2C2CC2)c(C)c1 (single isomer, unassigned) [Example F-429] |  |  | < 3 µM | < 3 µM
Cc1ccc(NC(=O)CCc2nnc(CCCC(C)C)n2C2CC2)c(C)c1 [Example F-215] |  |  | < 3 µM | < 3 µM
Cc1ccc(NC(=O)C[C@@H](CCO)c2noc([C@H]3C[C@@H](CC(C)C)C3)c2C2CC2)c(C)c1 [Example F-579] | < 3 µM | < 3 µM |  | 
COc1cc(F)ccc1CNC(=O)CCc1nnc(CCC(C)C)n1C1CC1 [Example F-229] |  |  | > 3 µM | > 3 µM
Cc1ccc(NC(=O)C[C@H](CCC(=O)O)c2noc(-c3cc(C(F)(F)C4(C)CC4)on3)c2C2CC2)c(Cl)c1 [Example E-51] |  |  | < 3 µM | < 3 µM
Cc1cc(Cl)c(NC(=O)C[C@H](CCC(=O)O)c2noc(-c3cc(CCC(C)(C)C)on3)c2C2CC2)cc1F [Example E-45] |  |  | < 3 µM | < 3 µM
Cc1ccc(NC(=O)C[C@H](CCC(=O)O)c2noc([C@H]3C[C@@H](CC(C)(C)C)C3)c2C2CC2)c(C)n1 [Example F-673] | < 3 µM | < 3 µM |  | 
Cc1ccc(NC(=O)C[C@H](C[C@H](C)O)c2nnc([C@H]3C[C@@H](CC(C)C)C3)n2C2CC2)c(C)c1 [Example F-574] | < 3 µM | < 3 µM |  | 
Cc1ccc(NC(=O)CC(CCC(N)=O)c2nnc(CCCC(C)C)n2C2CC2)c(C)c1 (racemic) [Example F-284] |  |  | > 3 µM | > 3 µM
Cc1ccc(NC(=O)C[C@H](CCC(=O)O)c2noc([C@H]3C[C@@H](CC(C)(C)C(=O)O)C3)c2C2CC2)c(Cl)c1 [Example F-727] | > 3 µM | > 3 µM |  | 
Cc1c(Cl)cccc1NC(=O)CC(CCCO)c1nnc(CCCC(C)C)n1C1CC1 (racemic) [Example F-212] |  |  | < 3 µM | < 3 µM
Cc1ccc(NC(=O)C[C@H](OCC(C)C)c2nnc([C@H]3C[C@@H](CC(C)C)C3)n2C2CC2)c(C)c1 [Example F-582] | < 3 µM | < 3 µM |  | 
Cc1ccc(NC(=O)C[C@H](CCC(=O)O)c2noc([C@H]3C[C@@H](CCc4ccccc4)C3)c2C2CC2)c(Cl)c1 [Example F-700] | < 3 µM | < 3 µM |  | 
CCn1c(CCC(=O)Nc2cc(Cl)cc(Cl)c2)nnc1C1Cc2ccccc2C1 [Example F-29] |  |  | > 3 µM | > 3 µM
Cc1ccc(C)c(NC(=O)CCc2nnc(CCC(C)C)n2C2CC2)c1 [Example F-71] |  |  | > 3 µM | > 3 µM
CCn1c(CCC2CCCCC2)nnc1[C@H]1CCCC[C@@H]1C(=O)Nc1cccc2ccccc12 (racemic) [Example F-35] |  |  | < 3 µM | < 3 µM
Cc1ccc(NC(=O)[C@H]2CN(C(=O)N3CCN(C)CC3)C[C@@H]2c2nnc([C@H]3C[C@@H](CC(C)C)C3)n2C2CC2)c(C)c1 [Example F-655] | < 3 µM | < 3 µM |  | 
COC(=O)C(C)(C)CCCc1nnc(CCC(=O)Nc2cccc(Cl)c2C)n1C1CC1 [Example F-230] |  |  | < 3 µM | < 3 µM
